Patent US6558923B2 (priority 1998, dated 2003)

What was measured:
Assay type in all cases: cell-based, HIV-1
NL4-3 reference virus = assay: microbe, parasite or virus in culture; details: Human immunodeficiency virus 1, NL43, read-out: Geometric-mean IC90
[1] = test system: recombinant virus carrying protease sequences from patient plasma
[2] = test system: recombinant virus carrying gag-protease sequences from patient plasma

| Structure (SMILES) | IC90 (NL4-3 reference virus) | Effect of increasing protease inhibitor concentrations on infectivity of recombinant particles [1] | Reduction in sensitivity [2] | Sensitivity [2] | Sensitivity correlated with genotype [2] | Change in IC90 [1] | IC90 of pre-therapy recombinant viruses compared with the other protease inhibitors [1] | Susceptibility of pre-therapy virus from patient B versus pre-therapy virus from patient A [1] |
| --- | --- | --- | --- | --- | --- | --- | --- | --- |
| CC(C)CN(C[C@@H](O)[C@H](Cc1ccccc1)NC(=O)O[C@H]1CCOC1)S(=O)(=O)c1ccc(N)cc1 [Amprenavir, amprenavir] | 54 nM |  |  |  |  |  |  |  |
| CC(C)(C)NC(=O)[C@@H]1CN(Cc2cccnc2)CCN1C[C@@H](O)C[C@@H](Cc1ccccc1)C(=O)N[C@H]1c2ccccc2C[C@H]1O [Indinavir] | 16 nM | clear and gradual inhibition of single-cycle particle infectivity | 10 fold | further reduced | reduced sensitivity |  |  |  |
| Cc1c(O)cccc1C(=O)N[C@@H](CSc1ccccc1)[C@H](O)CN1C[C@H]2CCCC[C@H]2C[C@H]1C(=O)NC(C)(C)C [Nelfinavir, nelfinavir] | 3.5 nM |  |  |  | reduced sensitivity |  |  |  |
| CC(C)c1nc(CN(C)C(=O)N[C@H](C(=O)N[C@@H](Cc2ccccc2)C[C@H](O)[C@H](Cc2ccccc2)NC(=O)OCc2cncs2)C(C)C)cs1 [Ritonavir] | 23 nM |  |  |  | reduced sensitivity |  |  |  |
| CC(C)(C)NC(=O)[C@@H]1C[C@@H]2CCCC[C@@H]2CN1C[C@@H](O)[C@H](Cc1ccccc1)NC(=O)[C@H](CC(N)=O)NC(=O)c1ccc2ccccc2n1 [Saquinavir] | 28 nM | clear and gradual inhibition of single-cycle particle infectivity | 4 fold | further reduced | resistance | prominent increase | always significantly lower | clearly less susceptible |
